Measured values: patent US20060165798A1, “Oral osmotic dosage form having a high flux membrane” (priority 2005, published 2006)

Type: physicochemical
Description: The measured values for the tested systems were Δπ=245 atmospheres, A=2.41 cm^2, S=333 mg/ ml. Thickness of the membrane was measured directly with a table micrometer. Osmotic pressure was measured on saturated solutions of potassium chloride at 37° C. using a Knauer model VPO vapor pressure osmometer and standard reference solutions of known osmotic pressure for comparison. Surface area of the tablet core was determined by first measuring the dimensions of the tablet core and then calculating surface area using standard mensuration formulae. Drug solubility was determined by measuring the concentration of a saturated solution of potassium chloride by conductivity analysis using a conductivity meter and reference solutions of potassium chloride of known aqueous concentrations. Average release rate was calculated by measuring the mass of potassium chloride released per 2-hour intervals of time according to the experimental procedures described in Example 3. Then, the total mass of potassium chloride released was summed for all whole 2-hour intervals between 20% and 70% (100 mg to 350 mg of potassium chloride) of the initial dose present within the dosage form (500 mg). Finally, the total mass of drug released during these whole intervals was divided by the sum of these time intervals to arrive at the average release rate. […]

## [Cl-].[K+] [potassium chloride]
Saturated aqueous solution
  drug solubility S: 333 mg/mL
Saturated solution at 37° C.
  osmotic pressure Δπ: 245 atmospheres
